Reference: paper PMC3513267 (Journal of molecular biology, 2011)
Like-named read-outs stand apart in the source and are kept apart here.

Experiments:
[1] = cited from earlier work
PKA-C = PKA-C (Mus musculus, UniProt P05132); assay: PKA-C catalyzed steady-state phosphorylation assay; assay type: biochemical; settings: for catalytic efficiency kcat/Km: spectrophotometric, 340 nm, 299 K, 50 mM MOPS pH 7.0, 20 mM DTT, 10 mM MgCl2, 5.0 mM ATP, 1.0 mM PEP, 0.2 mM NADH, triplicate
NMR secondary structure = settings: in the presence of DPC micelles

Row | Substance | R-state population ([1]; free in solution) [%] | catalytic efficiency kcat/Km (PKA-C; absence of membranes) | secondary structure (CSI and SSP scores) (NMR secondary structure) | R-state population ([1]; in DPC micelles) | phosphorylation efficiency (in words) (PKA-C; PLN in DPC micelles, most helical construct studied) | catalytic efficiency kcat/Km (PKA-C; full-length PLN in DPC micelles)
1 | PLN1–20: peptide corresponding to the cytoplasmic domain Ia of phospholamban (MEKVQYLTRSAIRRASTIEM; UniProt P26678 1-20, looked up, fragment) | 100 | ~ 0.6 µM^−1s^−1 | the peptide forms a stable α-helix |  |  | 
2 | PLN: synthetic and recombinant versions of full-length PLN with no lipidation; membrane protein that inhibits SERCA |  |  |  | ~ 4% | the phosphorylation efficiency is drastically lower | ~ 0.06 µM^−1s^−1
